Assay results reported in ChEMBL document CHEMBL1150483, “4-oxygenated retinoids: unexpected chemopreventive potential for analogues originally synthesized as affinity labels” (1992).

What was measured:
[1] = species: Mus musculus; experiment: Ability to inhibit tumor promoter-induced ornithine decarboxylase activity in mouse skin using 17 nM of protein; format: functional
[2] = species: Mus musculus; experiment: Ability to inhibit tumor promoter-induced ornithine decarboxylase activity in mouse skin using 1.7 nM of protein; format: functional

Structure (SMILES) | ODC Activity [1] | ODC Activity [2]
C=CC(=O)OC1CCC(C)(C)C(/C=C/C(C)=C/C=C/C(C)=C/C(=O)O)=C1C (stereo unspecified) | 2.4 (nM of CO2) 30min-1 (mg of protein)-1 | 3.5 (nM of CO2) 30min-1 (mg of protein)-1
CC1=C(/C=C/C(C)=C/C=C/C(C)=C/C(=O)O)C(C)(C)CCC1OC(=O)CBr (stereo unspecified) | 2.5 (nM of CO2) 30min-1 (mg of protein)-1 | 2.3 (nM of CO2) 30min-1 (mg of protein)-1
CC1=C(/C=C/C(C)=C/C=C/C(C)=C/C(=O)O)C(C)(C)CCC1 [TRETINOIN] | 1.9 (nM of CO2) 30min-1 (mg of protein)-1 | 2 (nM of CO2) 30min-1 (mg of protein)-1
